For series [1], the system named is MCF-7 cells. As to the kind of experiment: MTT cytotoxicity assay, MCF-7. Type of series: cell-based. The conditions noted are these: Homo sapiens, MCF7, 48 h, mean ± SEM of three. Here is the method: (§1) MDA-231 triple-negative breast cancer cells, MCF-7 breast cancer cells, and A549 adenocarcinomic human alveolar basal epithelial cells were maintained in Roswell Park Memorial Institute media (RPMI 1640, Sigma-Aldrich, St. Louis, MO, USA) supplemented with 10% foetal bovine serum and 1% penicillin/streptomycin. HDF human dermal normal fibroblast cells were cultured in Dulbecco’s Modified Eagle Medium (DMEM, Sigma-Aldrich, Eppelheim, Germany). MCF-7 breast cancer cell line was obtained from Cell Lines Service (CLS; Eppelheim, Germany). MDA-MB-231 breast cancer cell line and A549 cancer cells were obtained from the European Collection of Authenticated Cell Cultures (ECACC; Gillingham UK). Cell lines were maintained at 37 °C in a humidified incubator with 5% CO2.
(§2) The antiproliferative activity of compounds U1–6 was assessed using the 3-[4,5-dimethylthiazol-2-yl]-2,5-diphenyl tetrazolium bromide (MTT) assay, as previously described. Cancer cell lines were seeded in 96-well flatbottom plates at a density of 10^4 cells/well for 24 h. The cells were subsequently treated with U1–6 compounds at a screening concentration of 50 µM and incubated at 37 °C for 48 h in a humidified incubator containing 5% CO2. […] DMSO was used as a negative vehicle control (1% concentration). The culture media were then removed and incubated for 2 h with fresh 200 µL culture media containing 5 mg/mL MTT. After removing the culture media and dissolving the produced formazan crystals in 100 µL DMSO, they were incubated for another 30 min at 37 °C. The produced colour was measured at 570 nm using a microplate reader (Thermo-Scientific, Vantaa, Finland). The GraphPad Prism version 9.1 software was used to generate plots of absorbance versus the compound’s concentration. Three independent repeat experiments were performed for each concentration to ensure reproducibility. IC50 values were obtained from nonlinear regression plots of absorbance versus the log concentration of the tested compounds using the GraphPad Prism software version 5.0 (San Diego, CA, USA).

The subject of another series is A549 cells. As to the kind of experiment: MTT cytotoxicity assay, A549. Type of series: cell-based. The conditions noted are these: Homo sapiens, 48 h, mean ± SEM of three. Here is the method: as §1, §2
The test system of the next series is MDA-MB-231 cells. Put plainly: MTT cytotoxicity assay, MDA-MB-231. The conditions noted are these: Homo sapiens, 48 h, mean ± SEM of three. The format is cell-based. The protocol:
as §1, §2
(Tetrazolium dyes change colour on reduction, which living cells bring about.)

Series [2] relates to HDF human dermal normal fibroblast cells. As to the kind of experiment: Safety profile on HDF normal fibroblasts. Type of series: cell-based. The conditions noted are these: 50 µM, 24 hrs. Here is the method: as §1
as §2, with “h.” for “h. The cells were subsequently treated with U1–6 compounds at a screening concentration of 50 µM and incubated at 37 °C for 48 h in a humidified incubator containing 5% CO2.”

In the next series the target is T1, Bcl-2 protein (Homo sapiens, UniProt P10415).
T1 construct: purchased Thermo-Scientific BMS244-3
T1 sequence (P10415 whole entry): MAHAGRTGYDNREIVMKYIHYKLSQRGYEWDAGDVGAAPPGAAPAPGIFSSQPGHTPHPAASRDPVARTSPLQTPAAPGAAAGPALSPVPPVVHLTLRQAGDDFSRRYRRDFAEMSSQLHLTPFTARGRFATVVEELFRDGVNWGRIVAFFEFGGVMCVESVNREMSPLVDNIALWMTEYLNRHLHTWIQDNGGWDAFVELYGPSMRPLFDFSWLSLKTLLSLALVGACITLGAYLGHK
Put plainly: Bim ELISA binding assay (Bcl-2–Bim binding). The following applies: mean ± SEM of three, read-out: IC50 using ELISA against Bcl-2. Here is the method:
A Bim-binding assay (Thermo-Scientific, Catalogue No # BMS244-3, Vienna, Austria) was performed according to previously published data. PBS solution containing 0.05% Tween-20 was used to wash a streptavidin-coated 96-well plate. For immobilisation, biotinylated Bim peptide (residues 81–106) was diluted in SuperBlock blocking solution and applied to each well. After incubation, the plate was washed with 0.5% BSA in PBS with Tween-20 solution. […] After another wash, each well received anti-His antibody with horseradish peroxidase enzyme. Following incubation and washing, O-phenylenediamine and hydrogen peroxide solution were added for colour production. A plate reader (Thermo-Scientific, Vantaa, Finland) was used to measure the optical density at 450 nm. The reduction in Bim affinity was measured using a nonlinear regression curve (GraphPad Prism. Version 5.0), which was also utilized to generate the IC50 value of Bcl-2 inhibition.
On the technique in general: An ELISA detects its analyte on a solid surface through an enzyme-linked reagent.

For series [3], the system named is MCF-7 cells. Put plainly: Annexin-V-FITC apoptosis assay. Type of series: cell-based, human. The conditions noted are these: MCF-7, 24 h. Here is the method:
The Annexin-V-FITC apoptosis detection kit (Catalog # k101-25, Biovision, Mountain View, USA) was used for the apoptosis experiment according to previously published data. MCF-7 cells were treated with U2 compound for 24 h. The negative control was 0.1% DMSO. The cells were collected via centrifugation and resuspended in 500 µL of 1X Binding Buffer. Treated and control cells were stained with 5 µL Annexin V-FITC and 5 µL propidium iodide (PI […]) and then incubated at room temperature for 5 min in the dark. Fluorescence-activated cell sorting (FACS) was quantified via flow cytometry. Flow cytometry (excision at 488 nm; emission at 530 nm) was used to examine Annexin V-FITC binding and PI staining using the FITC signal detector and a phycoerythrin emission signal detector [71].

Series [4] deals with MCF-7 cells. Put plainly: Cell cycle assay (PI flow cytometry). The format is cell-based, human. The conditions noted are these: MCF-7, 24 h, at IC50 concentration. The protocol: DMSO vehicle was used as a negative control (1% concentration). The cells were collected, centrifuged, and fixed in 70% ethanol on ice for 20 min. The fixed cells were incubated for 1 h at room temperature with staining solution ([…] propidium iodide PI, 0.05% Triton X-100, 0.1 mg/mL RNaseA). A Gallios flow cytometer (Beckman Coulter, Brea, CA, USA) was used to measure the cell cycle proportion.

As for `Cc1cc2c(C(C)C)c(O)c(O)c(C=O)c2c(O)c1-c1c(C)cc2c(C(C)C)c(O)c(O)c(C=O)c2c1O` [Gossypol, reference compound], the IC50 (as a rule, the concentration that gives 50% inhibition) came out at 4.43 ± 0.54 µM in the series with MCF-7 cells [1], 3.45 ± 0.4 µM in the series on A549 cells and 5.5 ± 0.35 µM with MDA-MB-231 cells.
On to `O=C(CSc1nnc(-c2c[nH]c3ccccc23)n1-c1ccc(F)cc1)Nc1ccc(NC(=O)CN2CCOCC2)cc1` [Compound U1, 2-(4-(4-Fluorophenyl)-5-(1H-indol-3-yl)-4H-1,2,4-triazol-3-ylthio)-N-(4-(2 morpholinoacetamido)phenyl)acetamide], for which the melting point (commonly the temperature of the solid-liquid transition) fell in the range of 208 to 210 °C. Also, the IC50 in the series with MCF-7 cells [1] is 5.05 ± 0.8 µM. The same molecule came in with a half-maximal inhibitory concentration (IC50) in the series on A549 cells of 13.3 ± 0.58 µM. Besides, the “Inhibitory activity against HDF cells compared with the negative control” value in series [2] was “no significant change”. In the series with MDA-MB-231 cells, this molecule came in with an IC50 of 20.7 ± 0.85 µM.
Molecule `Cc1ccc(-n2c(SCC(=O)Nc3ccc(NC(=O)CN4CCOCC4)cc3)nnc2-c2c[nH]c3ccccc23)cc1` [Compound U3, 2-(5-(1H-Indol-3-yl)-4-methylphenyl-4H-1,2,4-triazol-3-ylthio)-N-(4-(2-morpholinoacetamido)phenyl)acetamide] returned a melting point of 250 to 252 °C. In addition, at Bcl-2 protein, the IC50 came to 11.1 ± 0.07 µM. For the same molecule, in the series on MCF-7 cells [1], half-maximal inhibition (IC50) was put at 1.17 ± 0.1 µM. In the series on A549 cells, this molecule came in with an IC50 of 2.98 ± 0.19 µM. The “Inhibitory activity against HDF cells compared with the negative control” value in series [2] was “no significant change”. The IC50 in the series on MDA-MB-231 cells turned out to be 4.07 ± 0.35 µM.
On to `O=C(CSc1nnc(-c2c[nH]c3ccccc23)n1-c1cccc(Cl)c1)Nc1ccc(NC(=O)CN2CCOCC2)cc1` [Compound U4, 2-(4-(3-Chlorophenyl)-5-(1H-indol-3-yl)-4H-1,2,4-triazol-3-ylthio)-N-(4-(2-morpholinoacetamido)phenyl) acetamide], for which the melting point fell in the range of 220 to 222 °C. This molecule showed an IC50 with MCF-7 cells [1] of 11 ± 1.2 µM. Further, the IC50 with A549 cells worked out at 16.1 ± 1.4 µM. The “Inhibitory activity against HDF cells compared with the negative control” value in series [2] is “no significant change”. This molecule showed a half-maximal inhibitory concentration (IC50) in the series with MDA-MB-231 cells of 28.4 ± 1.79 µM.
`COc1ccc(-n2c(SCC(=O)Nc3ccc(NC(=O)CN4CCOCC4)cc3)nnc2-c2c[nH]c3ccccc23)cc1` [Compound U2, 2-(5-(1H-Indol-3-yl)-4-(4-methoxyphenyl)-4H-1,2,4-triazol-3-ylthio)-N-(4-(2-morpholinoacetamido)phenyl)acetamide] yielded a melting point of 173 to 175 °C. The 50% inhibitory concentration (IC50) at Bcl-2 protein turned out to be 1.2 ± 0.02 µM. Moreover, in the series with MCF-7 cells [3], the “Increase in early apoptosis compared with control untreated cells” value worked out at 43 fold and the “Increase in late apoptosis compared with control untreated cells” value came out at 111 fold. Further, in the series with MCF-7 cells [1], the 50% inhibitory concentration (IC50) was determined as 0.83 ± 0.11 µM. In addition, 0.73 ± 0.07 µM corresponded to half-maximal inhibition with A549 cells (IC50). Also, the Cell cycle effect result with MCF-7 cells [4] was “cell cycle arrest at the G1/S phase”. For the same molecule, the “Inhibitory activity against HDF cells compared with the negative control” value in series [2] is “limited toxicity”. Besides, in the series on MDA-MB-231 cells, half-maximal inhibition (IC50) was put at 5.22 ± 0.55 µM.
In the case of `O=C(CSc1nnc(-c2c[nH]c3ccccc23)n1-c1ccc(Cl)c(Cl)c1)Nc1ccc(NC(=O)CN2CCOCC2)cc1` [Compound U6], the melting point fell in the range of 218 to 220 °C. For the same molecule, in the series on MCF-7 cells [1], inhibition was half-maximal at 35.5 ± 2.14 µM (IC50). The molecule also came in with an IC50 in the series with A549 cells of 66.5 ± 0.62 µM. In addition, the “Inhibitory activity against HDF cells compared with the negative control” value in series [2] is “limited toxicity”. Also, the IC50 with MDA-MB-231 cells came to 79.4 ± 4.04 µM.
For `O=C(CSc1nnc(-c2c[nH]c3ccccc23)n1-c1ccc(Cl)cc1)Nc1ccc(NC(=O)CN2CCOCC2)cc1` [Compound U5, 2-(4-(4-Chlorophenyl)-5-(1H-indol-3-yl)-4H-1,2,4-triazol-3-ylthio)-N-(4-(2-morpholinoacetamido)phenyl)acetamide], in that order: 208 to 210 °C, 34.4 ± 2.2 µM, 47.8 ± 3.7 µM, “no significant change” and 45.1 ± 1.15 µM.

Values taken from PMC10572575, “Design, Synthesis, and Potent Anticancer Activity of Novel Indole-Based Bcl-2 Inhibitors” (International Journal of Molecular Sciences, 2023).
